Data set [1] deals with T1, PPARα (Homo sapiens, UniProt Q07869).
T1 sequence (Q07869 167-468 limits assumed): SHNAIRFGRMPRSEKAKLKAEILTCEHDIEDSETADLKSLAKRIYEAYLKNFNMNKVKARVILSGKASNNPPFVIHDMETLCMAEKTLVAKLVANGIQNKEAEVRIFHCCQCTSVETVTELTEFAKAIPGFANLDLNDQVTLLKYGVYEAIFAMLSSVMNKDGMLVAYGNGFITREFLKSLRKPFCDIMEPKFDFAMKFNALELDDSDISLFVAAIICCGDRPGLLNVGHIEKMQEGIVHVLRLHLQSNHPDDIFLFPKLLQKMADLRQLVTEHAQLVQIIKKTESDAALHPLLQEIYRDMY
As to the kind of experiment: Radioligand binding assay, GST-PPARα-LBD fusion protein. The arrangement: PPARα (aa 167 to 469). The source says:
(§1) Full-length cDNA clones for human PPARα and mouse PPARγ were obtained by RT-PCR from human adipose and mouse liver cRNA, respectively, cloned into plasmid vectors and verified by DNA sequencing. […] To accomplish this, the portions of the cloned sequences encoding the LBDs were amplified from the full-length clones by PCR and then subcloned into the plasmid vectors. Final clones were verified by DNA sequence analysis.
(§2) Induction, expression, and purification of GST-LBD fusion proteins were performed in E. coli strain BL21 (pLysS) cells by standard methods (Ref: Current Protocols in Molecular Biology, Wiley Press, edited by Ausubel et al.).
(§3) Radioligand Binding Assay
PPARα receptor binding was assayed in TKE10 (10 mM Tris-HCl, pH 8, 50 mM KCl, 2 mM EDTA, 0.1 mg/ml fatty acid free BSA and 10 mM DTT). […]
PPARγ receptor binding was assayed in TKE50 (50 mM Tris-HCl, pH 8, 50 mM KCl, 2 mM EDTA, 0.1 mg/ml fatty acid-free BSA and 10 mM DTT). […] All binding assays were performed in 96 well plates and the amount of bound ligand measured on a Packard TopCount using OptiPlates (Packard). Nonspecific binding was determined in the presence of 10^−4 M unlabelled compound. […]

Data set [2] addresses T2, PPARγ (Mus musculus, UniProt P37238).
T2 sequence (P37238 204-505): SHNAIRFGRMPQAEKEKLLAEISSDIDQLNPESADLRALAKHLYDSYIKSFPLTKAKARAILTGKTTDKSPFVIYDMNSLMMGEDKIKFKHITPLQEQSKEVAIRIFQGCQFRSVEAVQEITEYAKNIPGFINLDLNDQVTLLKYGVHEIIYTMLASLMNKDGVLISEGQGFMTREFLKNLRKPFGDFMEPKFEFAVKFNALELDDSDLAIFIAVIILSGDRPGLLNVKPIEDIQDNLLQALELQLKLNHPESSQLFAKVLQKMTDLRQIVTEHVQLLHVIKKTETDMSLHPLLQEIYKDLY
The data set can be described thus: Radioligand binding assay (scintillation proximity), GST-PPARγ-LBD fusion protein. Set-up: PPARγ (aa 174 to 476). Particulars: radioligand binding (SPA).
Text: Background information on the performed assays can be found in: Nichols J S et al. “Development of a scintillation proximity assay for peroxisome proliferator-activated receptor gamma ligand binding domain”, (1998) Anal. Biochem. 257: 112–119.
(§4) Full-length cDNA clones for human PPARα and mouse PPARγ were obtained by RT-PCR from human adipose and mouse liver cRNA, respectively, cloned into plasmid vectors and verified by DNA sequencing. Bacterial and mammalian expression vectors were constructed to produce glutathione-s-transferase (GST) and Gal4 DNA binding domain proteins fused to the ligand binding domains (LBD) of PPARγ (aa 174 to 476) and PPARα (aa 167 to 469). To accomplish this, the portions of the cloned sequences encoding the LBDs were amplified from the full-length clones by PCR and then subcloned into the plasmid vectors. Final clones were verified by DNA sequence analysis.
as §2, §3
PPARγ receptor binding was assayed in TKE50 (50 mM Tris-HCl, pH 8, 50 mM KCl, 2 mM EDTA, 0.1 mg/ml fatty acid-free BSA and 10 mM DTT). For each 96 well reaction an 140 ng equivalent of GST-PPARγ-LBD fusion protein was bound to 10 ug SPA beads (PharmaciaAmersham) in a final volume of 50 ul by shaking. The resulting slurry was incubated for 1 h at RT and centrifuged for 2 min at 1300 g. The supernatant containing unbound protein was removed and the semidry pellet containig the recptor-coated beads was resolved in 50 ul of TKE. For radioligand binding e.g. 10000 dpm 2(S)-(2-benzoyl-phenylamino)-3-{4-[1,1-ditritio-2-(5-methyl-2-phenyl-oxazol-4-yl)-ethoxy]-phenyl}-propionic acid in 50 ul were added, the reaction incubated at RT for 1 h and scintillation proximity counting performed. All binding assays were performed in 96 well plates and the amount of bound ligand measured on a Packard TopCount using OptiPlates (Packard). Nonspecific binding was determined in the presence of 10^−4 M unlabelled compound. Dose response curves were done in triplicates within a range of concentration from 10^−10 M to 10^−4 M.

Data set [3] has as its target T1, PPARα. The data set can be described thus: Luciferase transcriptional reporter gene assay, BHK21 cells transfected with pFA-PPARα-LBD. Format: cell-based. Set-up: PPARα (aa 167 to 469); expressed in transfected cells; host or cells: BHK21 (ATCC CCL10). Particulars: Gal4-PPARα-LBD.
Text: as §1
(§5) Luciferase Transcriptional Reporter Gene Assays
(§6) Baby hamster kidney cells (BHK21 ATCC CCL10) were grown in DMEM medium containing 10% FBS at 37° C. in a 95%02:5%CO2 atmosphere. Cells were seeded in 6 well plates at a density of 10^5 Cells/well and then batch-transfected with either the pFA-PPARγ-LBD or pFA-PPARα-LBD expression plasmids plus a reporter plasmid and an expression plasmid encoding the secretable form of alkaline phosphatase (SEAP) as a normalization control. […] Six hours following transfection, the cells were harvested by trypsinization and seeded in 96 well plates at a density of 10^4 cells/well. After 24 hours to allow attachment of cells, the medium was removed and replaced with 100 ul of phenol red-free medium containing the test substances or control ligands (final DMSO concentration: 0.1%). Following incubation of the cells for 24 hours with substances, 50 ul of the supernatant was recovered and analyzed for SEAP activity (Roche Molecular Biochemicals). The remainder of the supernatant was discarded, 50 ul PBS was added per well followed by one volume of Luciferase Constant-Light Reagent (Roche Molecular Biochemicals) to lyse the cells and initiate the luciferase reaction. Luminescence for both SEAP and luciferase was measured in a Packard TopCount. Luciferase activity was normalized to the SEAP control and transcriptional activation in the presence of a test substance was expressed as fold-activation over cells incubated in the absence of the substance. EC50 values were calculated using the XLfit program (ID Business Solutions Ltd. UK).

Data set [4] addresses T2, PPARγ. As to the kind of experiment: Luciferase transcriptional reporter gene assay, BHK21 cells transfected with pFA-PPARγ-LBD. Format: cell-based. Particulars: Gal4-PPARγ-LBD. The arrangement: PPARγ (aa 174 to 476); expressed in transfected cells; host or cells: BHK21 (ATCC CCL10).
Text: as §4, §5, §6

We go through four compounds from US7109225B2, “Substituted oxazole derivatives” (Hofmann-la Roche Inc., priority 2002, dated 2006).

pEC50, pIC50: −log10 of the molar value.

With `CCO[C@@H](Cc1ccc(OCCc2nc(C(C)(C)C)oc2C)c2ccccc12)C(=O)O` [Example 1, (S)-3-{4-[2-(2-tert-Butyl-5-methyl-oxazol-4-yl)-ethoxy]-naphthalen-1-yl}-2-ethoxy-propionic acid], the melting point lay in the range of 103 to 105 °C. The compound further gave a pIC50 in data set [1] of 7.28. The compound further had a pIC50 in data set [2] of 6.82. In data set [3], this compound had a negative logarithm of the EC50 (pEC50) of 7.46. In data set [4], the pEC50 is 6.63.
Regarding `CCCOC(Cc1ccc(OCCc2nc(C3CC3)oc2C)c2ccsc12)C(=O)O` (stereo not shown) [Example 31, 3-{4-[2-(2-Cyclopropyl-5-methyl-oxazol-4-yl)-ethoxy]-benzo[b]thiophen-7-yl}-2-propoxy-propionic acid], the melting point lay in the range of 61 to 63 °C. The compound further showed a pIC50 in data set [2] of 6.69. Besides, the pEC50 in data set [3] is 7.21. Besides, the negative logarithm of the EC50 (pEC50) in data set [4] is 7.10.
For `Cc1oc(C(C)(C)C)nc1CCOc1ccc(CC(OC(C)C)C(=O)O)c2sccc12` (stereo not shown) [Example 8, 3-{4-[2-(2-tert-Butyl-5-methyl-oxazol-4-yl)-ethoxy]-benzo[b]thiophen-7-yl}-2-isopropoxy-propionic acid], in that order: 159 to 160 °C, 7.16, 7.57 and 7.72.
Regarding `CCCOC(Cc1ccc(OCCc2nc(CC(C)(C)C)oc2C)c2ccccc12)C(=O)O` (stereo not shown) [Example 33, 3-(4-{2-[2-(2,2-Dimethyl-propyl)-5-methyl-oxazol-4-yl]-ethoxy}-naphthalen-1-yl)-2-propoxy-propionic acid], in data set [2], the negative-log IC50 (pIC50) was 6.79. The pEC50 in data set [3] is 8.22; in data set [4], 7.17.
